Data published in patent US9452122B2, “Composition for improving skin conditions, containing extracellular domain of human bone morphogenetic protein receptor 1a as active ingredient” (JOINT CENTER FOR BIOSCIENCES, priority 2011, dated 2016).

Test system: wrinkles induced by UV radiation in SKH-1 nude mice
Assay: Wrinkle improvement effect of thioredoxin-human BMPR1a ECD in UV-irradiated nude mice (Example 5)
Format: in vivo
Details: UV 3 times/week for 11 weeks, 300 μl sample 5 times/week (proteins 1 μM, retinoic acid 0.01%)
Experimental: SKH-1 nude mice (female, 4 weeks old, DooYeol Biotech, Korea) were acclimated for about 2 weeks under conditions of a temperature of 24±2° C. and a humidity of 50±10% in a 12-hr light/12-hr dark cycle, and then divided into six groups for the experiment.
The protein group and control group were respectively treated with […] corresponding samples every week five times. For UV treatment, the back of each mouse was uniformly coated with the previously prepared sample one hour before UV radiation by using Art brush No. 3 (Hwahong, Incheon Korea).
VLX-3W stimulator(Vilber Lourmat, Marne la Vallee, France) was used for a UV radiation equipment. UV radiation was conducted three times every week for a total of 11 weeks: 40 mJ/cm^2 for 1st to 2nd weeks; 50 mJ/cm^2 for 3rd to 4th weeks; 60 mJ/cm^2 for 5th to 9th weeks; and 70 mJ/cm^2 for 10th to 11th weeks.
As the result of integration of the evaluations on respective items through observation by the naked eye, it was verified that skin wrinkles were improved by about 38% in the group coated with retinoic acid, about 42% in the group treated with Lipo-BMPR1a ECD, and about 59% in the group treated with Lipo-thioredoxin-BMPR1a ECD.

SMILES: CC1=C(/C=C/C(C)=C/C=C/C(C)=C/C(=O)O)C(C)(C)CCC1 [retinoic acid]
- skin wrinkles improved (wrinkle scores of 10 grades from photographs): about 38%
